Test results taken from patent US10106526B2, “Inhibitors of cyclin-dependent kinase 7 (CDK7)” (SYROS PHARMACEUTICALS, INC., priority 2014, dated 2018).
Where a name gives a salt, the structure may show the parent alone. Blank lines part the entries; values can stand above or below the compound they belong to.

Tests used:
[1] = target: T1, CDK7 (Homo sapiens, UniProt P50613); assay: CDK7 kinase activity, Adapta kinase assay (Life Technologies); type: biochemical; conditions: Adapta kinase assay at Life Technologies; 10 μM down to 0.514 nM, 3-fold serial dilutions; read-out: CDK7 Inhibition (IC50)
T1 construct: purchased Life Technologies (Adapta kinase assay service)
Method: Compounds of the invention were assayed for CDK7 activity at Life Technologies™ (Grand Island, N.Y.) using their commercially available Adapta® kinase assay services. Compounds were tested at concentrations ranging from 10 μM down to 0.514 nM in a series of 3-fold serial dilutions. Details of these assays, including substrates used, are available on the Life Technologies web site (http://www.lifetechnologies.com/us/en/home/life-science/drug-discovery/target-and-lead-identification-and-validation/kinasebiology/kinase-activity-assays.html).

[2] = test system: Jurkat cells; assay: Inhibition of proliferation of Jurkat cells (CellTiter-Glo, 72 hour); type: cell-based, human; conditions: 10 μM to 316 pM
Method: Jurkat cells are a cell line established from a human T cell leukemia. Representative compounds of the invention were tested at different concentrations (from 10 μM to 316 pM; 0.5 log serial dilutions) for their ability to inhibit the proliferation of Jurkat cells. Known CDK inhibitors flavopiridol and triptolide were used as positive controls. Cells were grown in RPMI 1640+10% FBS+1% Glutamax. The cells were supplemented with FBS (Life Technologies) and 100 U·mL^− penicillin, 100 μg·mL^− streptomycin (Invitrogen) and cultured at 37° C. in a humidified chamber in the presence of 5% CO2. Proliferation assays were conducted over a 72 hour time period. CellTiter-Glo® (Promega Corporation, Madison, Wis. USA) was used to assess the anti-proliferative effects of the compounds following manufacturer's directions and utilizing the reagents supplied with the CellTiter-Glo® kit. In this table, “A” represents an IC50 of less than 500 nM; “B” an IC50 of between 500 nM and 5 μM; and “C” an IC50 of greater than 5 μM.

[3] = test system: A673 cells; assay: Inhibition of proliferation of A673 cells (CyQUANT, 72 hour); type: cell-based, human; conditions: Homo sapiens, 72 hour proliferation
Method: A673 cells are a cell line derived from human muscle Ewing's sarcoma. Representative compounds of the invention were tested at different concentrations (from 4 μM to 126.4 pM; 0.5 log serial dilutions) for their ability to inhibit the proliferation of A673 cells. Known CDK inhibitors flavopiridol and triptolide were used as positive controls. Cells were grown in Dulbecco's Modified Eagle's Medium, +10% FBS+1 mM Sodium Pyruvate. The cells were cultured at 37° C. in a humidified chamber in the presence of 5% CO2. Proliferation assays were conducted over a 72 hour time period. CyQUANT® (Life Technologies, Chicago, Ill. USA) was used to assess the anti-proliferative effects of the compounds following manufacturer's directions and utilizing the reagents supplied with the CyQUANT® kit. In this table, “A” represents an IC50 of less than 500 nM; “B” an IC50 of between 500 nM and 5 μM; and “C” an IC50 of greater than 5 μM.

T1 sequence (P50613 whole entry): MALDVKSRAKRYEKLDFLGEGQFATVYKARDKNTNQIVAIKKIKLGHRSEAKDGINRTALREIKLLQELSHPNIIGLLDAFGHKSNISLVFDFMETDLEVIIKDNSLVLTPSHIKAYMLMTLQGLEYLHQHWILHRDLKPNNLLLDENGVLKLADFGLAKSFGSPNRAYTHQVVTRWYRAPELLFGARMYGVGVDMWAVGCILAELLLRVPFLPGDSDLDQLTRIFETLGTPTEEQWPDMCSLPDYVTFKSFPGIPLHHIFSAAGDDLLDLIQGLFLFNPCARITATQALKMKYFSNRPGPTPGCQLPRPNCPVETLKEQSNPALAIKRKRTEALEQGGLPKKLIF
T1 sequence (P51946 whole entry partner): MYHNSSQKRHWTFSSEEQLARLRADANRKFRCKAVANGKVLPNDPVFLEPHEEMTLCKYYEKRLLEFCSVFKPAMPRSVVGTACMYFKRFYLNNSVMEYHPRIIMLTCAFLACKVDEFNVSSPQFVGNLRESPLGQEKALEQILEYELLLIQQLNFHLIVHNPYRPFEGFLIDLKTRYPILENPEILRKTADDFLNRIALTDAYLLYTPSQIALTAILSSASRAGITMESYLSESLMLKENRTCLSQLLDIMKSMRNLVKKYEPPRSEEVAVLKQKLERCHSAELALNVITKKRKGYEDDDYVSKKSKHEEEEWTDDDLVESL
T1 sequence (P51948 whole entry partner): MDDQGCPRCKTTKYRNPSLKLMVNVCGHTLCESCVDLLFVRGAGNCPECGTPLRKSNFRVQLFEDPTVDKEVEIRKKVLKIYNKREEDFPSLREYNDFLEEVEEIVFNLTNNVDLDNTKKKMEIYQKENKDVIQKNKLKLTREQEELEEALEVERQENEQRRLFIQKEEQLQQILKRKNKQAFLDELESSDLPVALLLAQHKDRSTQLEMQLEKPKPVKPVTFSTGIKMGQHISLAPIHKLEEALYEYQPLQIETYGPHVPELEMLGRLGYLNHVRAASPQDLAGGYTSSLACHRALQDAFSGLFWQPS

Compound: Nc1ccc(C(=O)N[C@H]2CCC[C@@H](Nc3ncc(Cl)c(-c4c[nH]c5ccccc45)n3)C2)nc1 [Compound 1007, 5-amino-N-((1S,3R)-3-(5-chloro-4-(1H-indol-3-yl)pyrimidin-2-ylamino)cyclohexyl)picolinamide]
- IC50 [1]: < 100 nM
- IC50 ([2]; Homo sapiens): 500 to 5000 nM

Compound: O=C(N[C@@H]1CCC[C@H](Nc2ncc(Cl)c(-c3c[nH]c4ccccc34)n2)C1)C1CCN(C(=O)/C=C/CN2CCOCC2)CC1 [Compound 202-2, N-((1R,3S)-3-((5-chloro-4-(1H-indol-3-yl)pyrimidin-2-yl)amino)cyclohexyl)-1-((E)-4-morpholinobut-2-enoyl)piperidine-4-carboxamide]
- IC50 [1]: < 100 nM
- IC50 ([2]; Homo sapiens): < 500 nM

Compound: NCCCCC(=O)N1CC[C@@H](Nc2ncc(Cl)c(-c3c[nH]c4ccccc34)n2)C1 [Compound 1000, 5-((R)-3-(5-chloro-4-(1H-indol-3-yl)pyrimidin-2-ylamino)pyrrolidin-1-yl)-5-oxopentan-1-aminium chloride]
- IC50 [1]: < 100 nM
- IC50 ([2]; Homo sapiens): 500 to 5000 nM

Compound: C=CC(=O)N1CCCC(CN(C(=O)C=C)[C@H]2CC[C@@H](Nc3ncc(Cl)c(-c4c[nH]c5ccccc45)n3)CC2)C1 (single isomer, unassigned) [191-2]
- IC50 [1]: > 1000 nM
- IC50 [2]: > 5000 nM

Compound: CN(C)C/C=C/C(=O)Nc1ccc(C(=O)Nc2cccc(Nc3ncc(Cl)c(-c4c[nH]c5ccccc45)n3)c2)nc1 [Compound 107, (E)-N-(3-(5-chloro-4-(1H-indol-3-yl)pyrimidin-2-ylamino)phenyl)-5-(4-(dimethylamino)but-2-enamido)picolinamide]
- IC50 [1]: < 100 nM
- IC50 ([2]; Homo sapiens): 500 to 5000 nM

Compound: CN(C)CC=CC(=O)N1CCC(CNC2CCC(Nc3ncc(Cl)c(-c4c[nH]c5ccccc45)n3)CC2)CC1 (centres unmarked) [compound 196]
- IC50 [1]: < 100 nM
- IC50 [2]: 500 to 5000 nM

Compound: Nc1ccc(C(=O)N[C@H]2CCC[C@@H](Nc3ncc(Cl)c(-c4c[nH]c5ccccc45)n3)C2)nn1 [Compound 1027, 6-amino-N-((1S,3R)-3-(5-chloro-4-(1H-indol-3-yl)pyrimidin-2-ylamino)cyclohexyl)pyridazine-3-carboxamide]
- IC50 ([2]; Homo sapiens): 500 to 5000 nM

Compound: C=CC(=O)NC12CC(C(=O)Nc3cccc(Nc4ncc(Cl)c(-c5c[nH]c6ccccc56)n4)c3)(C1)C2 (racemic) [Compound 108, N-(3-{[5-chloro-4-(1H-indol-3-yl)pyrimidin-2-yl]amino}phenyl)-3-(prop-2-enamido)bicyclo[1.1.1]pentane-1-carboxamide]
- IC50 [1]: > 1000 nM

Compound: C=CC(=O)N1CCC(C(=O)N2CC[C@H](Nc3ncc(Cl)c(-c4c[nH]c5ccccc45)n3)C2)CC1 [Compound 210, (S)-1-(4-(3-((5-chloro-4-(1H-indol-3-yl)pyrimidin-2-yl)amino)pyrrolidine-1-carbonyl)piperidin-1-yl)prop-2-en-1-One]
- IC50 [1]: 100 to 1000 nM
- IC50 ([2]; Homo sapiens): 500 to 5000 nM

Compound: CN(C)C/C=C/C(=O)N[C@H]1CC[C@@H](C(=O)Nc2cccc(Nc3ncc(Cl)c(-c4c[nH]c5ccccc45)n3)c2)CC1 [Compound 101, (Cis,E)-N-(3-(5-chloro-4-(1H-indol-3-yl)pyrimidin-2-ylamino)phenyl)-4-(4-(dimethylamino)but-2-enamido)cyclohexanecarboxamide]
- IC50 [1]: < 100 nM
- IC50 ([2]; Homo sapiens): > 5000 nM

Compound: NCCc1cc2ccc(Nc3ncc(Cl)c(-c4c[nH]c5ccccc45)n3)cc2[nH]1 [Compound 1028, 2-(2-aminoethyl)-N-(5-chloro-4-(1H-indol-3-yl)pyrimidin-2-yl)-1H-indol-6-amine.HCl]
- IC50 ([2]; Homo sapiens): 500 to 5000 nM

Compound: CN(C)C/C=C/C(=O)N1CCC[C@@H](C(=O)Nc2cccc(Nc3ncc(Cl)c(-c4c[nH]c5ccccc45)n3)c2)C1 [Compound 103, (3R,E)-N-(3-(5-chloro-4-(1H-indol-3-yl)pyrimidin-2-ylamino)phenyl)-1-(4-(dimethylamino)but-2-enoyl)piperidine-3-carboxamide]
- IC50 [1]: < 100 nM
- IC50 ([2]; Homo sapiens): 500 to 5000 nM

Compound: CN(C)CCCC(=O)NCCc1cc2ccc(Nc3ncc(Cl)c(-c4c[nH]c5ccccc45)n3)cc2[nH]1 [Compound 1029, N-(2-(6-(5-chloro-4-(1H-indol-3-yl)pyrimidin-2-ylamino)-1H-indol-2-yl)ethyl)-4-(dimethylamino)butanamide]
- IC50 ([2]; Homo sapiens): 500 to 5000 nM

Compound: CN(C)CCCC(=O)Nc1ccc(C(=O)Nc2cccc(Nc3ncc(Cl)c(-c4c[nH]c5ccccc45)n3)c2)nc1 [compound 1023]
- IC50 [2]: 500 to 5000 nM

Compound: Nc1ccc(C(=O)N[C@H]2CCC[C@@H](Nc3ncc(Cl)c(-c4c[nH]c5ccccc45)n3)C2)cn1 [Compound 1025, 6-amino-N-((1S,3R)-3-(5-chloro-4-(1H-indol-3-yl)pyrimidin-2-ylamino)cyclohexyl)nicotinamide]
- IC50 ([2]; Homo sapiens): 500 to 5000 nM

Compound: N#Cc1cnc(N[C@@H]2CCC[C@H](NC(=O)c3ccc(N)cn3)C2)nc1-c1c[nH]c2ccccc12 [Compound 1009, 5-amino-N-((1S,3R)-3-(5-cyano-4-(1H-indol-3-yl)pyrimidin-2-ylamino)cyclohexyl)picolinamide]
- IC50 [1]: < 100 nM

Compound: Nc1nc(C(=O)N[C@H]2CCC[C@@H](Nc3ncc(Cl)c(-c4c[nH]c5ccccc45)n3)C2)cs1 [Compound 1026, 2-amino-N-((1S,3R)-3-(5-chloro-4-(1H-indol-3-yl)pyrimidin-2-ylamino)cyclohexyl)thiazole-4-carboxamide]
- IC50 ([2]; Homo sapiens): 500 to 5000 nM

The next lines start with results.

- IC50 [1]: < 100 nM
Compound: NCC(F)(F)C(=O)N[C@H]1CCC[C@@H](Nc2ncc(Cl)c(-c3c[nH]c4ccccc34)n2)C1 [Compound 1010, 3-amino-N-((1S,3R)-3-(5-chloro-4-(1H-indol-3-yl)pyrimidin-2-ylamino)cyclohexyl)-2,2-difluoropropanamide]

- IC50 [1]: < 100 nM
- IC50 ([2]; Homo sapiens): 500 to 5000 nM
Compound: C=CC(=O)N1CCN(C(=O)N[C@H]2CCC[C@@H](Nc3ncc(Cl)c(-c4c[nH]c5ccccc45)n3)C2)CC1 [Compound 201, 4-Acryloyl-N-((1S,3R)-3-(5-chloro-4-(1H-indol-3-yl)pyrimidin-2-ylamino)cyclohexyl)piperazine-1-carboxamide]

- IC50 [1]: < 100 nM
- IC50 [2]: 500 to 5000 nM
Compound: CN(C)C/C=C/C(=O)N1CC[C@@H](Nc2ncc(Cl)c(-c3c[nH]c4ccccc34)n2)C1 [Compound 176]

- IC50 [1]: < 100 nM
Compound: C=CC(=O)N1CCN(C[C@H]2CCC[C@@H](Nc3ncc(Cl)c(-c4c[nH]c5ccccc45)n3)C2)CC1 [Compound 129, 1-(4-(((1S,3R)-3-((5-chloro-4-(1H-indol-3-yl)pyrimidin-2-yl)amino)cyclohexyl)methyl)piperazin-1-yl)prop-2-en-1-One]
- IC50 [3]: < 500 nM

- IC50 [1]: < 100 nM
- IC50 ([2]; Homo sapiens): < 500 nM
Compound: CN(C)C/C=C/C(=O)NCC(F)(F)C(=O)N[C@H]1CCC[C@@H](Nc2ncc(Cl)c(-c3c[nH]c4ccccc34)n2)C1 [Compound 111, (E)-N-(3-((1S,3R)-3-(5-chloro-4-(1H-indol-3-yl)pyrimidin-2-ylamino)cyclohexlamino)-2,2-difluoro-3-oxopropyl)-4-(dimethylamino)but-2-enamide]

- IC50 [1]: < 100 nM
- IC50 ([2]; Homo sapiens): 500 to 5000 nM
Compound: C=CC(=O)N[C@H]1CCC[C@@H](Nc2ncc(Cl)c(-c3c[nH]c4ccccc34)n2)C1 [Compound 170, N-((1S,3R)-3-(5-chloro-4-(1H-indol-3-yl)pyrimidin-2-ylamino)cyclohexyl)acrylamide]

- IC50 [1]: < 100 nM
- IC50 ([2]; Homo sapiens): 500 to 5000 nM
Compound: O=C(Nc1cccc(Nc2ncc(Cl)c(-c3c[nH]c4ccccc34)n2)c1)C1CCNCC1 [Compound 1006, N-(3-(5-chloro-4-(1H-indol-3-yl)pyrimidin-2-ylamino)phenyl)piperidine-4-carboxamide]

- IC50 ([2]; Homo sapiens): 500 to 5000 nM
Compound: Nc1ccc(C(=O)Nc2cccc(Nc3ncc(Cl)c(-c4c[nH]c5ccccc45)n3)c2)cn1 [Compound 1024, 6-amino-N-(3-(5-chloro-4-(1H-indol-3-yl)pyrimidin-2-ylamino)phenyl)nicotinamide]

- IC50 [1]: < 100 nM
- IC50 ([2]; Homo sapiens): 500 to 5000 nM
Compound: O=C(Nc1cccc(Nc2ncc(Cl)c(-c3c[nH]c4ccccc34)n2)c1)[C@H]1CCCNC1 [Compound 1005, (3S)—N-(3-(5-chloro-4-(1H-indol-3-yl)pyrimidin-2-ylamino)phenyl)piperidine-3-carboxamide]

- IC50 [1]: 100 to 1000 nM
- IC50 [2]: < 500 nM
Compound: CN(C)CC=CC(=O)N1CCCC(CNC2CCC(Nc3ncc(Cl)c(-c4c[nH]c5ccccc45)n3)CC2)C1 (racemic) [compound 194]
